According to patent publication US6603023B2 (priority 1996, dated 2003):
Like-named read-outs stand apart in the source and are kept apart here. Marks after values point to notes of the source that are not given here.

Key:
MCF-7 = assay: SRB cytotoxicity, MCF-7; format: cell-based, human; details: Table 1C; SRB, 72 h; read-out: IC50
Outline: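 Monolayer MCF-7 cultures exposed to six to seven drug concentrations in duplicate, then fixed with trichloroacetic acid and stained 30 min with 0.4% sulforhodamine B. Bound dye extracted with unbuffered Tris base, absorbance read at 570 nm; values derived by median-effect plot analysis.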

[1] = tested on: Human CCRF-CEM/VBL Xenograft; assay: CCRF-CEM/VBL xenograft in scid mice; format: in vivo, CB-17 scid mice
B16 Melanoma = format: in vivo, B6D2F1 mice
Experimental: Body weight was determined at 0, 2, 4, 6, 8, 10 and 12 days. […] Injections were started on day 1. […] Body weight was determined at 0, 2, 4, 6, 8, 10 and 12 days. […] Injections were started on day 1.

[2] = tested on: human ovarian adenocarcinoma SK-OV-3; details: 0.6 mg/kg i.p. Q2Dx5 from day 9
[3] = tested on: human mammary carcinoma MX-1 xenograft; details: for Average Body Weight, Day 7: initial weight, first treatment day
Experimental: DMSO was used as a vehicle for epothilones. Each mouse received ≦40 μL DMSO in all experiments.
Athymic nude mice (nu/nu) were used for MX-1 and MCF-7/Adr human mammary carcinoma xenografts. Mice were obtained from Taconic Laboratory Animals and Service (Germantown, N.Y.: outbred, Swiss background).

[4] = dose 0.7 i.p. QD d7-10,14,15, day 12
[5] = dose 0.7 i.p. QD d7-10,14,15, day 17
[6] = dose 0.7 i.p. QD d7-10,14,15, day 22
[7] = dose 1.0 i.p. QD d7-10,14,15, day 12
[8] = dose 1.0 i.p. QD d7-10,14,15, day 17
[9] = dose 1.0 i.p. QD d7-10,14,15, day 22
[10] = 0.3 mg/kg i.p. Q2Dx5 from day 7, day 11
[11] = 0.3 mg/kg i.p. Q2Dx5 from day 7, day 13
[12] = 0.3 mg/kg i.p. Q2Dx5 from day 7, day 15
[13] = 0.3 mg/kg i.p. Q2Dx5 from day 7, day 17
[14] = 0.6 mg/kg i.p. Q2Dx5 from day 7, day 11
[15] = 0.6 mg/kg i.p. Q2Dx5 from day 7, day 13
[16] = 0.6 mg/kg i.p. Q2Dx5 from day 7, day 15
[17] = 0.6 mg/kg i.p. Q2Dx5 from day 7, day 17
[18] = 0.6 mg/kg i.p. Q2Dx5 from day 9
[19] = 0.6 mg/kg i.p. Q2Dx5 from day 9, day 13
[20] = 0.6 mg/kg i.p. Q2Dx5 from day 9, day 15
[21] = 0.6 mg/kg i.p. Q2Dx5 from day 9, day 17
[22] = 0.6 mg/kg i.p. Q2Dx5 from day 9, day 19
[23] = high doses: dEpoB 25, EpoB 0.6, Taxol 10, Vinblastine 0.4 mg/kg i.p. Q2D from day 7
[24] = low doses: dEpoB 15, EpoB 0.3, Taxol 5, Vinblastine 0.2 mg/kg i.p. Q2D day 7-15

Question: What does the source list for `C/C(=C\c1csc(C)n1)[C@@H]1C[C@@H]2O[C@]2(C)CCC[C@H](C)[C@H](O)[C@@H](C)C(=O)C(C)(C)[C@@H](O)CC(=O)O1` [Epothilone B, epothilone B]?
Answer: IC50 (MCF-7): 500 pM; mice died of drug toxicity ([1]; Epo B dose 1.0 i.p., 7 mice, day 17): ^6.One mouse died of drug toxicity on day 17.; Average weight change ([1]; dose 0.7 i.p. QD d7-10,14,15, day 7): +0.1; Average tumor volume (control = 1.00) [1, 4]: 0.32; Average weight change [1, 4]: −0.7; Average tumor volume (control = 1.00) [1, 5]: 0.40; Average weight change [1, 5]: −1.0; Average tumor volume (control = 1.00) [1, 6]: 0.33; Average weight change [1, 6]: −0.2; Average weight change ([1]; dose 1.0 i.p. QD d7-10,14,15, day 7): −0.2; Average tumor volume (control = 1.00) [1, 7]: 0.41; Average weight change [1, 7]: −1.3; Average tumor volume (control = 1.00) [1, 8]: 0.27; Average weight change [1, 8]: −2.1; Average tumor volume (control = 1.00) [1, 9]: 0.31; Average weight change [1, 9]: −0.5; Average Tumor Volume (T/C) (B16 Melanoma; 0.4 mg/kg QD × 6 from day 1, day 7): 1.07; # Mice Died (B16 Melanoma; 0.8 mg/kg QD × 5 from day 1): 5/8; Average Tumor Volume (T/C) (B16 Melanoma; 0.8 mg/kg QD × 5 from day 1, day 9): 0.46; Therapeutic effect Rank Order (B16 Melanoma; B16 Melanoma, i.p.): dEpoB > Taxol ® >> EpoB; Toxicity Death [2]: 0/6; Tumor Disapp. [2]: 0/6; Average Body Weight Change ([2]; day 13): -0.9 g; Average Body Weight Change ([2]; day 15): -0.5 g; Average Tumor Size (T/C) ([2]; day 15): 0.75; Average Body Weight Change ([2]; day 17): -3.3 g; Average Tumor Size (T/C) ([2]; day 17): 0.69; Average Body Weight Change ([2]; day 19): -3.4 g; Average Tumor Size (T/C) ([2]; day 19): 0.88; Average Tumor Size (T/C) ([2]; day 21): 0.77; Toxicity Death ([3]; 0.3 mg/kg i.p. Q2Dx5 from day 7): 0/7; Average Body Weight Change [3, 10]: +0.5 g; Average Tumor Size (T/C) [3, 10]: 1.00; Average Body Weight Change [3, 11]: +0.4 g; Average Tumor Size (T/C) [3, 11]: 0.71; Average Body Weight Change [3, 12]: -0.3 g; Average Tumor Size (T/C) [3, 12]: 0.71; Average Body Weight Change [3, 13]: -1.2 g; Average Tumor Size (T/C) [3, 13]: 0.84; Toxicity Death ([3]; 0.6 mg/kg i.p. Q2Dx5 from day 7): 3/7)##; Average Body Weight Change [3, 14]: -0.3 g; Average Tumor Size (T/C) [3, 14]: 1.08; Average Body Weight Change [3, 15]: -1.3 g; Average Tumor Size (T/C) [3, 15]: 0.73; Average Body Weight Change [3, 16]: -2.1 g; Average Tumor Size (T/C) [3, 16]: 0.81; Average Body Weight Change [3, 17]: -2.1 g; Average Tumor Size (T/C) [3, 17]: 0.74; Toxicity Death [3, 18]: 0/6; Tumor Disapp. [3, 18]: 0/6; Average Body Weight Change [3, 19]: -0.9 g; Average Tumor Size (T/C) [3, 19]: 0.67; Average Body Weight Change [3, 20]: 0.5 g; Average Tumor Size (T/C) [3, 20]: 0.63; Average Body Weight Change [3, 21]: -3.3 g; Average Tumor Size (T/C) [3, 21]: 0.61; Average Body Weight Change [3, 22]: -3.4 g; Average Tumor Size (T/C) [3, 22]: 0.51; average body weight decrease ([3]; EpoB 0.3 mg/kg i.p. days 7-15): over 1 g; average body weight decrease ([3]; EpoB 0.6 mg/kg i.p. days 7-15): > 2 g; mice died of toxicity ([3]; EpoB 0.6 mg/kg i.p. days 7-15): three out of seven; Therapeutic effect Rank Order ([3]; MX-1, i.p., comparison with Camptothecin, VBL, EpoB (order wraps over rows r7-r8)): Taxol ® > VBL, EpoB; Average Body Weight (change), Day 11 [3, 23]: -0.3 g; Average Body Weight (change), Day 13 [3, 23]: -1.3 g; Average Body Weight (change), Day 15 [3, 23]: -2.1 g; Average Body Weight Change, Day 17 [3, 23]: -2.1 g; Average Tumor Volume (T/C), Day 11 [3, 23]: 1.08 T/C; Average Tumor Volume (T/C), Day 13 [3, 23]: 0.73 T/C; Average Tumor Volume (T/C), Day 15 [3, 23]: 0.81 T/C; Average Tumor Volume (T/C), Day 17 [3, 23]: 0.74 T/C; Note: died (mice died/total) [3, 23]: 3/7 died; Average Body Weight, Day 7 [3, 23]: 27.4 g; Average Body Weight, Day 7 [3, 24]: 26.9 g; Average Body Weight (change), Day 11 [3, 24]: +0.5 g; Average Body Weight (change), Day 13 [3, 24]: +0.4 g; Average Body Weight (change), Day 15 [3, 24]: -0.3 g; Average Body Weight Change, Day 17 [3, 24]: -1.2 g; Average Tumor Volume (T/C), Day 11 [3, 24]: 1.00 T/C; Average Tumor Volume (T/C), Day 13 [3, 24]: 0.71 T/C; Average Tumor Volume (T/C), Day 15 [3, 24]: 0.71 T/C; Average Tumor Volume (T/C), Day 17 [3, 24]: 0.84 T/C; Note: died (mice died/total) [3, 24]: 0/7 died
